Patent publication US9840509B2, “Heterocyclic compounds” (CADILA HEALTHCARE LIMITED, priority 2014, dated 2017)

Tests used:
[1] = target: T1, CYP 2C9 (Homo sapiens, UniProt P11712); assay: CYP inhibition in human liver microsomes, 2C9; format: in vitro ADME; settings: pH 7.4, @ 10 μM concn
T1 construct: from tissue; host or cells: human liver microsomes
Experimental: (§1) CYP Inhibition Studies: CYP inhibition studies were performed with test compounds, at two concentrations ([…] and 10 μM), using human liver microsomes (Yao, M., Zhu, M., Sinz, M. W., Zhang, H., Humphreys, W. F., Rodrigues, A. D and Dai, R., Journal of Pharmaceutical and Biomedical Analysis, 2007, 44, 211-223; Walsky, R. L and Obach, R. S., Drug Metab. Dispos., 2004, 32, 647-660). Human liver microsomes were mixed with 100 mM phosphate buffer (pH 7.4) and probe substrate and warmed to […] in microcentrifuge tubes. Aliquots of this mixture (499 μL) were transferred to each pre-labeled microcentrifuge tubes, followed by addition of the 1 μL of inhibitors (test compound/CYP-specific positive control inhibitor) or control solvent (DMSO). Aliquots of this mixture (90 μL) were transferred to each pre-labeled microcentrifuge tubes in duplicate. Final solvent concentrations were 0.2% (v/v) or less. Incubations were commenced with the addition of 10 μL NADPH stock (assay concentration, 1 mM) to a final incubation volume of 100 μL and incubated in shaking water bath (at 37° C. and 100 rpm), for the period defined in Tables 1. Incubations were terminated by addition of 400 μL of termination solvent (CH3CN) containing internal standard. The terminated samples were vortex-mixed, centrifuged at 10000 rpm for 5 min and supernatant transferred into HPLC vials for LC-MS/MS analysis to monitor metabolites produced by marker CYP reactions. […] Animals

[2] = target: T2, CYP 3A4 (Homo sapiens, UniProt P08684); assay: CYP inhibition in human liver microsomes, 3A4; format: in vitro ADME; settings: pH 7.4, @ 10 μM concn
T2 construct: from tissue; host or cells: human liver microsomes
Experimental: as §1

[3] = target: T3, CYP 2C19 (Homo sapiens, UniProt P33261); assay: CYP inhibition in human liver microsomes, 2C19; format: in vitro ADME; settings: pH 7.4, @ 10 μM concn
T3 construct: from tissue; host or cells: human liver microsomes
Experimental: as §1

[4] = target: T4, CYP 2C8 (Homo sapiens, UniProt P10632); assay: CYP inhibition in human liver microsomes, 2C8; format: in vitro ADME; settings: pH 7.4, @ 10 μM concn
T4 construct: from tissue; host or cells: human liver microsomes
T4 sequence (P10632 1-490): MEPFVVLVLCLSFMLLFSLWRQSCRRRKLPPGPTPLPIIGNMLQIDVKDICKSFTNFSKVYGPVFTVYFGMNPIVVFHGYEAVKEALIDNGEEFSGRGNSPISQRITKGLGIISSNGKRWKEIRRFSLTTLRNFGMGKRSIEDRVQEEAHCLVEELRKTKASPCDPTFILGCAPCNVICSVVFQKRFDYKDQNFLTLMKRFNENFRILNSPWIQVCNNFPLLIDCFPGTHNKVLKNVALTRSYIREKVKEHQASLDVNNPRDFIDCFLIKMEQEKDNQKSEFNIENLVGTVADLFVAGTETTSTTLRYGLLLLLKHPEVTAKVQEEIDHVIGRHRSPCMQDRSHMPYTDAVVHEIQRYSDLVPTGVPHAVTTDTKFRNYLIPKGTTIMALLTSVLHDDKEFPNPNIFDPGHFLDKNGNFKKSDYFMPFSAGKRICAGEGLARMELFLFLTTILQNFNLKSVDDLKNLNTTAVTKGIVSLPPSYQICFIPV
Experimental: as §1

[5] = target: T5, recombinant purified human BTK (Homo sapiens, UniProt Q06187); assay: In vitro BTK kinase assay on ADP Glo platform; format: biochemical; settings: 2 hr room temperature, read-out: In-vitro BTK inhibitory activity: IC50
T5 construct: purchased SignalChem, USA
Experimental: Testing of Compounds of the Invention Biological Studies: In vitro BTK Inhibitory Activity Assay:
In vitro BTK inhibitory activity of test compounds were screened using BTK kinase assay on ADP Glo platform (Li, H., Totoritis, R. D., Lor, L. A., Schwartz, B., Caprioli, P., Jurewicz, A. J and Zhang, G., Assay Drug Dev. Technol., 2009, 7(6), 598-605). Briefly, fixed amount of recombinant purified human BTK (3 ng/reaction from SignalChem, USA) were incubated with increasing concentration of test compounds, in 1× kinase reaction buffer (40 mM Tris-Cl, pH7.5, 20 mM MgCl2, 2 mM MnCl2, 0.1 mg/ml BSA and 50 μM DTT). Enzymatic reaction was initiated by adding a substrate cocktail containing 50 µM of ATP (final concentration) and […] of polyGln4Tyr1 (Signal Chem) in total 25 μl of reaction, in round bottom white 96 well plate. The reaction mixture was incubated at room temperature for 2 hr. After 2 hr of incubation, 10 μl of the reaction mix was mixed with […] of ADP Glo reagent, in another round bottom white 96 well plate and incubated at room temperature for 40 min. This was followed by addition of kinase detection reagent (20 μl per reaction) and incubation at room temperature for 30 min. Finally, plate was read for luminescence at an integration time of 500 millisecond per well. Data were plotted taking Enzyme with no inhibitor set as the 100% kinase activity and for dose response curve, % Kinase activity was plotted against conc on Log scale and IC50 was determined by non linear curve fitting method using GraphPad Prism software 6. The in vitro BTK inhibitory activity (IC50) for representative compounds are listed in […]

[6] = target: T6, CYP 1A2 (Homo sapiens, UniProt P05177); assay: CYP inhibition in human liver microsomes, 1A2; format: in vitro ADME; settings: pH 7.4, @ 10 μM concn
T6 construct: from tissue; host or cells: human liver microsomes
T6 sequence (P05177 1-516): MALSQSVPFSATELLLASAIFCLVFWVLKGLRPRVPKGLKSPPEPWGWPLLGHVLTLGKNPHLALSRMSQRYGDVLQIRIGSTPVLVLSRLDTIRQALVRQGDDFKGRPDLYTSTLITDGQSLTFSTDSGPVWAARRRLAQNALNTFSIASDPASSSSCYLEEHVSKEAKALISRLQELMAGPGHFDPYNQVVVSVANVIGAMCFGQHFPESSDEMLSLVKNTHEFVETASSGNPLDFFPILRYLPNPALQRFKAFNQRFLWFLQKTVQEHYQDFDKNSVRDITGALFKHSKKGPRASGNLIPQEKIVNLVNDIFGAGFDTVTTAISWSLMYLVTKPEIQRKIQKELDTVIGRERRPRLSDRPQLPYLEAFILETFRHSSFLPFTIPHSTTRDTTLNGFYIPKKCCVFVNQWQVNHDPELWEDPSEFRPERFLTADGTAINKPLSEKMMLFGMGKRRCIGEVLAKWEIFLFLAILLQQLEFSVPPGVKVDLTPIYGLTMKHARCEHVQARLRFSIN
Experimental: as §1

[7] = target: T7, CYP 2D6 (Homo sapiens, UniProt P10635); assay: CYP inhibition in human liver microsomes, 2D6; format: in vitro ADME; settings: pH 7.4, @ 10 μM concn
T7 construct: from tissue; host or cells: human liver microsomes
Experimental: as §1

T1 sequence (P11712 whole entry): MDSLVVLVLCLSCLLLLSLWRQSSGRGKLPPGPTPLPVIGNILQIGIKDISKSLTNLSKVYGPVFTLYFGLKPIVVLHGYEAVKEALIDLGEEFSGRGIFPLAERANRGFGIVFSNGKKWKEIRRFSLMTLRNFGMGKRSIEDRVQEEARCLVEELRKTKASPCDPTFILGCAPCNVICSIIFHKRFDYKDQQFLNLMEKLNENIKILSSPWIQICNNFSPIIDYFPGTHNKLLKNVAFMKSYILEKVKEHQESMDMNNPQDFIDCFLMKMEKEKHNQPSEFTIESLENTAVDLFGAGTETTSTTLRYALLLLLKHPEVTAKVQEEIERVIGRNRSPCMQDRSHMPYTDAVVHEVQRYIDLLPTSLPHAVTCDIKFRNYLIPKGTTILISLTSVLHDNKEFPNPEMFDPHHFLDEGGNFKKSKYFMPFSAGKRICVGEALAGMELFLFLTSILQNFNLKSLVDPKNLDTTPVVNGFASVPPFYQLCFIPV
T5 sequence (Q06187 whole entry): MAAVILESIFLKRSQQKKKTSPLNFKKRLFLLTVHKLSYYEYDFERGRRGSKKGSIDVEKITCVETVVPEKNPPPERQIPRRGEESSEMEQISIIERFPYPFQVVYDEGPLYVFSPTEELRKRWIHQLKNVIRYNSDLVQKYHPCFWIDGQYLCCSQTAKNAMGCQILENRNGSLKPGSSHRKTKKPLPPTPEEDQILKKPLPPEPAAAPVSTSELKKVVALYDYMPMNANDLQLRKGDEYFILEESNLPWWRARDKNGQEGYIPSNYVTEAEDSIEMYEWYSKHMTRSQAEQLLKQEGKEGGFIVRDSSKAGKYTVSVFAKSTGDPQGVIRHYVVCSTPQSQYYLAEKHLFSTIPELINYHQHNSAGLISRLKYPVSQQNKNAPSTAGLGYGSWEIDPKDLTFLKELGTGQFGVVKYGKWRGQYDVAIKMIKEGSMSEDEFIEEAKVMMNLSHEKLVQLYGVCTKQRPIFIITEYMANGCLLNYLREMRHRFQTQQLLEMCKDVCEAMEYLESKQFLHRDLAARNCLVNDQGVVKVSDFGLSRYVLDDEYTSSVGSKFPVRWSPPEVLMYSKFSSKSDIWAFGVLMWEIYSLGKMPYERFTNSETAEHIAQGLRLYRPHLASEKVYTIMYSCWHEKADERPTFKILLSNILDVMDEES
T7 sequence (P10635 whole entry): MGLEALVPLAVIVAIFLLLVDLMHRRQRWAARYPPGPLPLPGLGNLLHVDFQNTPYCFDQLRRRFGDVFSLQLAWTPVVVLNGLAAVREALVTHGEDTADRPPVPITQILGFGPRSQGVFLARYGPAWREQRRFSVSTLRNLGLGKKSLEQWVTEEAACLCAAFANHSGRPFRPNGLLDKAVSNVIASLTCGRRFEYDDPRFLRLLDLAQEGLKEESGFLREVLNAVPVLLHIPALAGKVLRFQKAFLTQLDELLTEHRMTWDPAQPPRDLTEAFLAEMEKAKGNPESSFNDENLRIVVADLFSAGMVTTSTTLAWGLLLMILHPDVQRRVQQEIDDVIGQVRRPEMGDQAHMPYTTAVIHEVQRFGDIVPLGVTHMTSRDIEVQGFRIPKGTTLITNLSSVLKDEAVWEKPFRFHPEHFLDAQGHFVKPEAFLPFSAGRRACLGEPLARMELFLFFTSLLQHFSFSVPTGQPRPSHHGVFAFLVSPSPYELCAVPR
T3 sequence (P33261 whole entry): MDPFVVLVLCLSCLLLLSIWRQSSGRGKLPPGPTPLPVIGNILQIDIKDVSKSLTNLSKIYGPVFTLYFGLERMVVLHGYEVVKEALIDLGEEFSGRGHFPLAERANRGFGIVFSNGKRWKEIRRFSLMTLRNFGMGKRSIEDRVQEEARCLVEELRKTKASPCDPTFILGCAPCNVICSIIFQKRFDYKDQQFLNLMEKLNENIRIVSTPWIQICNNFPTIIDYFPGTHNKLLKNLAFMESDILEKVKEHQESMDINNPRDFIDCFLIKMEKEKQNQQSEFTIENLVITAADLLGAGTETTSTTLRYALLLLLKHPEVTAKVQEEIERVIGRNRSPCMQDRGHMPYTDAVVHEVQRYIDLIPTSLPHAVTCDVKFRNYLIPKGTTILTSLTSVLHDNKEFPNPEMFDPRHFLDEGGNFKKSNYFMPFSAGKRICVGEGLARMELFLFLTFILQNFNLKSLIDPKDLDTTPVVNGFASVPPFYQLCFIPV
T2 sequence (P08684 whole entry): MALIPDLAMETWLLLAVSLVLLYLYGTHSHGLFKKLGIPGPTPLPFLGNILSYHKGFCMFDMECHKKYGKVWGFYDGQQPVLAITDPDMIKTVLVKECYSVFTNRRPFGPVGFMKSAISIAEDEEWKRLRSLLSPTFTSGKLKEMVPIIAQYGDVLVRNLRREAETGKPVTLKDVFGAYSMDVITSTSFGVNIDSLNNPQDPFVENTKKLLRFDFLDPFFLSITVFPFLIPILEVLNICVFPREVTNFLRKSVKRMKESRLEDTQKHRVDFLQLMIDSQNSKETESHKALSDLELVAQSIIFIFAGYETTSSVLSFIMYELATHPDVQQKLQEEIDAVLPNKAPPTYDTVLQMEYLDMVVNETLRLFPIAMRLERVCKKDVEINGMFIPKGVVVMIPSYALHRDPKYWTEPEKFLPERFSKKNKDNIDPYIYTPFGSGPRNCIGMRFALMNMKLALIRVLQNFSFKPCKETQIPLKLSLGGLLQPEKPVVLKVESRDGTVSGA

C#CC(=O)N1CC2CC(n3nc(-c4ccc(Oc5ccccc5)cc4)c4c(N)ncnc43)CC2C1 (centres unmarked) [Compound 11, 1-(5-(4-amino-3-(4-phenoxyphenyl)-1H-pyrazolo[3,4-d]pyrimidin-1-yl)hexahydrocyclopenta[c]pyrrol-2(1H)-yl)prop-2-yn-1-one]
inhibition at 10 μM [1]: < 50% | inhibition at 10 μM [2]: < 50% | inhibition at 10 μM [3]: < 50% | inhibition at 10 μM [4]: < 50% | IC50 [5]: 13 nM | inhibition at 10 μM [6]: < 50% | inhibition at 10 μM [7]: < 50%

C=CC(=O)N1CC2CC(n3nc(-c4ccc(Oc5ccccc5)c(OC)c4)c4c(N)ncnc43)CC2C1 (centres unmarked) [Compound 12, 1-(5-(4-amino-3-(3-methoxy-4-phenoxyphenyl)-1H-pyrazolo[3,4-d]pyrimidin-1-yl)hexahydrocyclopenta[c]pyrrol-2(1H)-yl)prop-2-en-1-one]
inhibition at 10 μM [1]: > 50% | inhibition at 10 μM [2]: > 50% | inhibition at 10 μM [3]: < 50% | inhibition at 10 μM [4]: > 50% | IC50 [5]: 37 nM | inhibition at 10 μM [6]: < 50% | inhibition at 10 μM [7]: < 50%

C=CC(=O)N1CC2CC(n3nc(-c4ccc(C(=O)Nc5ccccn5)cc4)c4c(N)ncnc43)CC2C1 (centres unmarked) [Compound 13, 4-(1-(2-acryloyloctahydrocyclopenta[c]pyrrol-5-yl)-4-amino-1H-pyrazolo[3,4-d]pyrimidin-3-yl)-N-(pyridin-2-yl)benzamide]
inhibition at 10 μM [1]: < 50% | inhibition at 10 μM [2]: < 50% | inhibition at 10 μM [3]: > 50% | inhibition at 10 μM [4]: < 50% | IC50 [5]: 1.8 nM | inhibition at 10 μM [6]: < 50% | inhibition at 10 μM [7]: < 50%

C=CC(=O)N1CC2CC(n3nc(-c4ccc5nc(-c6ccccc6)sc5c4)c4c(N)ncnc43)CC2C1 (centres unmarked) [Compound 14, 1-(5-(4-amino-3-(2-phenylbenzo[d]thiazol-6-yl)-1H-pyrazolo[3,4-d]pyrimidin-1-yl)hexahydrocyclopenta[c]pyrrol-2(1H)-yl)prop-2-en-1-one]
inhibition at 10 μM [1]: < 50% | inhibition at 10 μM [2]: < 50% | inhibition at 10 μM [3]: < 50% | inhibition at 10 μM [4]: < 50% | IC50 [5]: 1.4 nM | inhibition at 10 μM [6]: < 50% | inhibition at 10 μM [7]: < 50%

C=CC(=O)N1CC2CC(n3nc(-c4ccc5c(c4)OCO5)c4c(N)ncnc43)CC2C1 (centres unmarked) [Compound 15, 1-(5-(4-amino-3-(benzo[d] [1,3]dioxol-5-yl)-1H-pyrazolo[3,4-d]pyrimidin-1-yl)hexahydrocyclopenta[c]pyrrol-2(1H)-yl)prop-2-en-1-one]
inhibition at 10 μM [1]: < 50% | inhibition at 10 μM [2]: > 50% | inhibition at 10 μM [3]: < 50% | inhibition at 10 μM [4]: < 50% | IC50 [5]: 18 nM | inhibition at 10 μM [6]: < 50% | inhibition at 10 μM [7]: < 50%

C=CC(=O)N1CC2CC(n3nc(-c4ccc(-c5nnc(C)o5)cc4)c4c(N)ncnc43)CC2C1 (centres unmarked) [Compound 16, 1-(5-(4-amino-3-(4-(5-methyl-1,3,4-oxadiazol-2-yl)phenyl)-1H-pyrazolo[3,4-d]pyrimidin-1-yl)hexahydrocyclopenta[c]pyrrol-2(1H)-yl)prop-2-en-1-one]
inhibition at 10 μM [1]: < 50% | inhibition at 10 μM [2]: < 50% | inhibition at 10 μM [3]: < 50% | inhibition at 10 μM [4]: < 50% | IC50 [5]: 1.7 nM | inhibition at 10 μM [6]: < 50% | inhibition at 10 μM [7]: < 50%

C=CC(=O)N1CC2CC(n3nc(-c4ccc5ncoc5c4)c4c(N)ncnc43)CC2C1 (centres unmarked) [Compound 17, 1-(5-(4-amino-3-(benzo[d]oxazol-6-yl)-1H-pyrazolo[3,4-d]pyrimidin-1-yl)hexahydrocyclopenta[c]pyrrol-2(1H)-yl)prop-2-en-1-one]
inhibition at 10 μM [1]: < 50% | inhibition at 10 μM [2]: > 50% | inhibition at 10 μM [3]: < 50% | inhibition at 10 μM [4]: < 50% | IC50 [5]: 5 nM | inhibition at 10 μM [6]: < 50% | inhibition at 10 μM [7]: < 50%

C=CS(=O)(=O)N1CC2CC(n3nc(-c4ccc(Oc5ccccc5)cc4)c4c(N)ncnc43)CC2C1 (centres unmarked) [Compound 18, 3-(4-phenoxyphenyl)-1-(2-(vinylsulfonyl)octahydrocyclopenta[c]pyrrol-5-yl)-1H-pyrazolo[3,4-d]pyrimidin-4-amine]
inhibition at 10 μM [1]: > 50% | inhibition at 10 μM [2]: > 50% | inhibition at 10 μM [3]: < 50% | inhibition at 10 μM [4]: > 50% | IC50 [5]: 218 nM | inhibition at 10 μM [6]: < 50% | inhibition at 10 μM [7]: < 50%

C=CC(=O)N1CC2CC(n3nc(-c4ccc5nc(-c6ccccc6)oc5c4)c4c(N)ncnc43)CC2C1 (centres unmarked) [Compound 19, 1-(5-(4-amino-3-(2-phenylbenzo[d]oxazol-6-yl)-1H-pyrazolo[3,4-d]pyrimidin-1-yl)hexahydrocyclopenta[c]pyrrol-2(1H)-yl)prop-2-en-1-one]
inhibition at 10 μM [1]: < 50% | inhibition at 10 μM [2]: < 50% | inhibition at 10 μM [3]: < 50% | inhibition at 10 μM [4]: < 50% | IC50 [5]: 4 nM | inhibition at 10 μM [6]: < 50% | inhibition at 10 μM [7]: < 50%

C=CC(=O)N1CC2CC(n3nc(-c4ccc5nc(Oc6ccccc6)sc5c4)c4c(N)ncnc43)CC2C1 (centres unmarked) [Compound 20, 1-(5-(4-amino-3-(2-phenoxybenzo[d]thiazol-6-yl)-1H-pyrazolo [3,4-d]pyrimidin-1-yl)hexahydrocyclopenta[c]pyrrol-2(1H)-yl)prop-2-en-1-one]
inhibition at 10 μM [1]: > 50% | inhibition at 10 μM [2]: > 50% | inhibition at 10 μM [3]: < 50% | inhibition at 10 μM [4]: > 50% | IC50 [5]: 223 nM | inhibition at 10 μM [6]: < 50% | inhibition at 10 μM [7]: < 50%

C=CC(=O)N1CC2CC(n3nc(-c4ccc(-c5cnn(C)c5)cc4)c4c(N)ncnc43)CC2C1 (centres unmarked) [Compound 21, 1-(5-(4-amino-3-(4-(1-methyl-1H-pyrazol-4-yl)phenyl)-1H-pyrazolo [3,4-d]pyrimidin-1-yl)hexahydrocyclopenta[c]pyrrol-2(1H)-yl)prop-2-en-1-one]
inhibition at 10 μM [1]: < 50% | inhibition at 10 μM [2]: < 50% | inhibition at 10 μM [3]: < 50% | inhibition at 10 μM [4]: < 50% | IC50 [5]: 50 nM | inhibition at 10 μM [6]: > 50% | inhibition at 10 μM [7]: < 50%
